Experiment [1] deals with Escherichia coli JM109. The conditions noted are these: LB liquid medium, 37° C. The protocol: (§1) A growth inhibition test in aerobic culture was performed to examine the influence of phenol on Corynebacterium glutamicum, Escherichia coli, and Pseudomonas putida. Pseudomonas putida S12, which was used for the test, is reported to be a solvent-resistant strain. In the report, disclosed is an unparalleled technology using the strain as a host in phenol production.
Escherichia coli JM109 was applied to LB agar medium (1% polypeptone, 0.5% yeast extract, 0.5% NaCl and 1.5% agar) and was left stand in the dark at 37° C. for 15 hours.
An inoculation loop of the Escherichia coli JM109 grown on a plate as above was inoculated into a test tube containing 10 mL of LB liquid medium (1% polypeptone, 0.5% yeast extract, and 0.5% NaCl), and aerobic culture was performed with shaking at 37° C. for 13 hours.
The Escherichia coli JM109 grown in the above conditions was inoculated into 100 mL of LB liquid medium in such a way that the initial bacterial cell concentration would be OD610=0.05, phenol was added at the same time in such a way that the final concentration would be 0, 0.16, or 0.20 mM, and aerobic culture was performed with shaking at 37° C. The growth of bacterial cells was determined by absorbance measurement at OD610.
(§2) The growth of bacterial cells was determined by absorbance measurement at OD610.

Experiment [2] relates to Corynebacterium glutamicum R. As to conditions: A liquid medium, 33° C. The procedure:
as §1
Corynebacterium glutamicum R was applied to A agar medium (2 g of (NH2)2CO3 7 g of (NH4)2SO4, 0.5 g of KH2PO4, 0.5 g of K2HPO4, 0.5 g of MgSO4.7H2O, 1 mL of 0.06% (w/v) Fe2SO4.7H2O+0.042% (w/v) MnSO4.2H2O, 1 mL of 0.02% (w/v) biotin solution, 2 mL of 0.01% (w/v) thiamin solution, 2 g of yeast extract, 7 g of vitamin assay casamino acid, 40 g of glucose, and 15 g of agar were suspended in 1 L of distilled water) and was left stand in the dark at 33° C. for 15 hours.
An inoculation loop of the Corynebacterium glutamicum R grown on a plate as above was inoculated into a test tube containing 10 mL of A liquid medium (2 g of (NH2)2CO3 7 g of (NH4)2SO4, 0.5 g of KH2PO4, 0.5 g of K2HPO4, 0.5 g of MgSO4.7H2O, 1 mL of 0.06% (w/v) Fe2SO4.7H2O+0.042% (w/v) MnSO4.2H2O, 1 mL of 0.02% (w/v) biotin solution, 2 mL of 0.01% (w/v) thiamin solution, 2 g of yeast extract, 7 g of vitamin assay casamino acid, and 40 g of glucose were suspended in 1 L of distilled water) and was aerobically cultured with shaking at 33° C. for 13 hours.
The Corynebacterium glutamicum R grown in the above conditions was inoculated into 100 mL of A liquid medium in such a way that the initial bacterial cell concentration would be OD610=0.05, phenol was added at the same time in such a way that the final concentration would be 0, 0.16, 0.2, 0.24, or 0.32 mM, and aerobic culture was performed with shaking at 33° C. The growth of bacterial cells was determined by absorbance measurement at OD610.
as §2

The subject of experiment [3] is Pseudomonas putida F1. The conditions noted are these: LB (+glucose) liquid medium, 30° C. The protocol: as §1
(§3) Pseudomonas putida F1 and S12 were applied to LB agar medium (1% polypeptone, 0.5% yeast extract, 0.5% NaCl and 1.5% agar) and were left stand in the dark at 30° C. for 15 hours.
(§4) An inoculation loop of each of the Pseudomonas putida F1 and S12 grown on a plate as above was inoculated into a test tube containing 10 mL of LB (+glucose) liquid medium (1% polypeptone, 0.5% yeast extract, 0.5% NaCl and 0.4% glucose), and aerobic culture was performed with shaking at 30° C. for 13 hours.
(§5) The Pseudomonas putida F1 and S12 grown in the above conditions were each inoculated into 100 mL of LB (+glucose) liquid medium in such a way that the initial bacterial cell concentration would be OD610=0.05, phenol was added at the same time in such a way that the final concentration would be 0, 0.10, or 0.20 […], and aerobic culture was performed with shaking at 30° C.
as §2

For experiment [4], the system named is Pseudomonas putida S12. As to conditions: LB (+glucose) liquid medium, 30° C. The protocol: as §1, §3, §4, §5, §2

Like-named read-outs stand apart in the source and are kept apart here.

Consider `Oc1ccccc1` [phenol], for which the “influence of phenol on aerobic proliferation (OD610)” value in experiment [1] (0.16% phenol) is “significantly affected”; in experiment [1] (0.20% phenol), “completely inhibited”; in experiment [2] (0.16% phenol), “hardly affected”; in experiment [2] (0.20% phenol), “favorable growth”; in experiment [2] (0.24% phenol), “able to proliferate”; in experiment [3] (0.10% phenol), “significantly affected”. In addition, the results for the “influence of phenol on aerobic proliferation (OD610)” value in experiment [3] (0.20% phenol), in experiment [4] (0.10% phenol) and in experiment [4] (0.20% phenol) were “completely inhibited”, “significantly affected” and “completely inhibited”, respectively.

The record behind these values is patent US9090900B2, “Coryneform bacterium transformant and process for producing phenol using the same” (priority 2010, dated 2015).
